6 compounds from patent publication US20030073850A1, “4-Imidazole derivatives of benzyl and restricted benzyl sulfonamides, sulfamides, ureas, carbamates, and amides and their use” (priority 1998, published 2003) can be followed below.

Read-outs that look alike come from different tables or passages of the source.

Data set [1] has as its target T1, α1b (hamster receptor expressed in mouse fibroblasts) (Mesocricetus auratus, UniProt P18841).
T1 construct: expressed in transfected cells; host or cells: mouse fibroblasts
T1 sequence (P18841 1-515): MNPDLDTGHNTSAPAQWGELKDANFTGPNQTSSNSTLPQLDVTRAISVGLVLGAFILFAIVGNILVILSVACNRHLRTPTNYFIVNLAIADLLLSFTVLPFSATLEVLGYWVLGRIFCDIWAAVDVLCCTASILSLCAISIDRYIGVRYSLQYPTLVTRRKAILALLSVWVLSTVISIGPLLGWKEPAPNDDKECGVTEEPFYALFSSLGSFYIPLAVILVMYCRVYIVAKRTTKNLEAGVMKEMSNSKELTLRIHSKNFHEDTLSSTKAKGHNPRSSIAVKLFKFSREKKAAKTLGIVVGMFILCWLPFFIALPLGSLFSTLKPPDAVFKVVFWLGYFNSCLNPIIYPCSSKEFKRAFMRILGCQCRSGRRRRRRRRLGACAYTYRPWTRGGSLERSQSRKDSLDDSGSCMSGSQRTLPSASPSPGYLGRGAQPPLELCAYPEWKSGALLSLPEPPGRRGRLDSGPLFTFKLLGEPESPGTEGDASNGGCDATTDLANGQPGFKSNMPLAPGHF
The data set is described as follows: Radioligand binding, [3H]-prazosin, α1b. The essentials:
(§1)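 [3H]-prazosin radioligand displacement; α1A from rat submaxillary gland tissue, α1b hamster and α1d rat receptors each expressed in mouse fibroblasts.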

Data set [2] addresses T2, α1B (rat spleen) (Rattus norvegicus, UniProt P15823).
T2 construct: α1B (rat spleen) and α1D (rat aorta) receptors; from tissue; host or cells: rat spleen
T2 sequence (P15823 1-515): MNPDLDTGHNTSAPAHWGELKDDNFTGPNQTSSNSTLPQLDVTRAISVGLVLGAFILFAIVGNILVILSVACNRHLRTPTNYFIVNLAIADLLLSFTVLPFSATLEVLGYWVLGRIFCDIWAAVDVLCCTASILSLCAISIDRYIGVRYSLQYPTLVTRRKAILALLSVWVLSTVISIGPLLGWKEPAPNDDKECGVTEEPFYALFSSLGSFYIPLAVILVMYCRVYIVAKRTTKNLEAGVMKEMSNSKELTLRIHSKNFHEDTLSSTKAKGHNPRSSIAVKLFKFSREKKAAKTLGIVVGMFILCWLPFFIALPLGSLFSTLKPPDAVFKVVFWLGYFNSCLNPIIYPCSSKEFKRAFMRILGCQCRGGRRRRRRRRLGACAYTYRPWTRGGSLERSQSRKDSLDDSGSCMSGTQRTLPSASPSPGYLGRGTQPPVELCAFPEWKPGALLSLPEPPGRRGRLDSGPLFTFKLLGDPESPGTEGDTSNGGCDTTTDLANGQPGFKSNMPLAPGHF
The data set is described as follows: Agonist tissue response, contraction of rat spleen. It counts as biochemical. Conditions: read-out: Agonist Tissue Response (pD2) α1B (rat spleen) (converted).

The target of data set [3] is T3, α1d (rat receptor expressed in mouse fibroblasts) (Rattus norvegicus, UniProt P23944).
T3 construct: expressed in transfected cells; host or cells: mouse fibroblasts
T3 sequence (P23944 1-561): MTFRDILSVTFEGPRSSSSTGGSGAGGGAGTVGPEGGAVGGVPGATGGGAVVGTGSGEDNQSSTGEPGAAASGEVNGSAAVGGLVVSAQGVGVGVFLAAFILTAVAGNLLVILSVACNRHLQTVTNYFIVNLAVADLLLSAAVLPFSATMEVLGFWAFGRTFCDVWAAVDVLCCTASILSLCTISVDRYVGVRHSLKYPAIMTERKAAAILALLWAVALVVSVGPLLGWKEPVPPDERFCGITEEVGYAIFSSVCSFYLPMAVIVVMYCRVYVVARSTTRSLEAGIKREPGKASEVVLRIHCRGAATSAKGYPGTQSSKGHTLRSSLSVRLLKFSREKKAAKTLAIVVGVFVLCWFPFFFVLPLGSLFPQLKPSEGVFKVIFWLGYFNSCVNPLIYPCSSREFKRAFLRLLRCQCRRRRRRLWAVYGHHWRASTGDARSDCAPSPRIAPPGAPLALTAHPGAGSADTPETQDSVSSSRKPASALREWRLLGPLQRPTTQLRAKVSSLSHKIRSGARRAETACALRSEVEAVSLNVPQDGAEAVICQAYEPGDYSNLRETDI
The data set is described as follows: Radioligand binding, [3H]-prazosin, α1d. The method in brief: as §1

The subject of data set [4] is anesthetized dogs. Kind of data set: Intraurethral pressure (IUP) in anesthetized dogs. It counts as in vivo, dog. The conditions noted are these: for ED (5 mm Hg): Canis lupus familiaris, iv dose causing a maximum increase in IUP of 5 mm Hg, anesthetized female Beagle dogs, read-out: Mean IUP ED5; for Mean Selectivity Ratio MAP ED20/IUP ED5: anesthetized dogs, iv. An excerpt:
(§2) Female Beagle dogs (Marshall Farms, North Rose, N.Y.) greater that 2 years of age and weighing between 12 and 15 kg were used in these studies. At least 2 weeks prior to any agonist dosing, dogs were instrumented for the chronic measurement of arterial blood pressure by implanting a telemetry transducer/transmitter (TA11PA-C40, Data Sciences International, St. Paul, Minn.) into a carotid artery.
(§3) On the test day, dogs fasted since the previous afternoon were pre-anesthetized with thiopental sodium 15 mg/kg i.v. (Pentothal™, Abbott) and intubated. Anesthesia was maintained by allowing the dog to spontaneously breathe a mixture of isoflurane (2.5 to 3 volume %) and oxygen delivered by a Narkomed Standard anesthesia system (North American Drager, Telford, Pa.). An Abbocath-T™ i.v. catheter (18-G, Abbott) was inserted into the cephalic vein for the administration of agonists. A telemetry receiver (RA1310, DataSciences) was placed under the head of each dog and was interfaced to a computerized data acquisition system (Modular Instruments Inc.(MI2), Malvern, Pa.) which allowed for the continuous calibrated recording of arterial blood pressure which was electronically filtered to determine its mean value (MAP).
Dogs with chronic telemetry implants anesthetized as described above were placed in dorsal recumbency and a balloon catheter was inserted into the urethral orifice and advanced approximately 15 cm until the tip was well inside the bladder. The balloon was then inflated with 1 ml of room air and the catheter slowly withdrawn until resistance (corresponding to the bladder neck) was evident. The balloon was then deflated and the catheter withdrawn additional 2 cm. The balloon was then reinflated and its catheter port connected to a Gould Statham P23Dd pressure transducer interfaced to a computerized data acquisition system (Modular Instruments, Inc., Malvern, Pa.) for the measurement of the intraurethral pressure. Increasing iv doses of test agonists were administered and the maximum effect of each dose on IUP was recorded. The effect of each dose was allowed to return to baseline before the next dose was given.
(§4) From the resulting dose response curve, an ED5 value, for the dose causing a maximum increase in IUP of 5 mm Hg, could be estimated. An ED20 value for the dose causing a maximum increase in MAP of 20 mm Hg could also be estimated. A selectivity ratio of MAP ED20 vs. IUP ED, was calculated.

In data set [5] the target is T4, α1A (rat submaxillary gland) (Rattus norvegicus, UniProt P43140).
T4 construct: α1A (rat submaxillary gland); from tissue; host or cells: rat submaxillary gland
T4 sequence (P43140 1-466): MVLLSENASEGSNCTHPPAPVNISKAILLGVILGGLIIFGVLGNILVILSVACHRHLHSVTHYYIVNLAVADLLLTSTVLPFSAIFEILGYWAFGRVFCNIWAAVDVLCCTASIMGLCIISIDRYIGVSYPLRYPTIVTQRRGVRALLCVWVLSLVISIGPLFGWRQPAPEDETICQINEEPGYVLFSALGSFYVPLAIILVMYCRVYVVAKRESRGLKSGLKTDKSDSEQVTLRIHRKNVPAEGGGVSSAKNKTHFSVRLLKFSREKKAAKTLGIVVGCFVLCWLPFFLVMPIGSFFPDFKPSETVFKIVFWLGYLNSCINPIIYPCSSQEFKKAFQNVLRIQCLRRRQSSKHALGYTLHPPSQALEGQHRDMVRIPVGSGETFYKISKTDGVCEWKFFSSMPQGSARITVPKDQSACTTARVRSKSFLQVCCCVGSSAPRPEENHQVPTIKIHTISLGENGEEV
Kind of data set: Radioligand binding, [3H]-prazosin, α1A. On the procedure:
For purposes of discussing a, adrenoceptor subtypes, the IUPHAR convention of using lower case letters to define molecular clones and upper case letters to indicate pharmacologically defined adrenoceptors has been followed. Compounds of formula I were evaluated in radioligand binding assays specific for α1A (rat submaxillary gland), α1b (hamster receptor expressed in mouse fibroblasts) and α1d (rat receptor expressed in mouse fibroblasts) using [^3H]-prazosin as the radioligand as described in Knepper, et al. J. Pharm.

Data set [6] relates to anesthetized dogs. The data set is described as follows: Mean arterial pressure (MAP) in anesthetized dogs. The class given is in vivo, dog. Conditions: iv dose causing a maximum increase in MAP of 20 mm Hg, anesthetized female Beagle dogs.
Source text: as §2, §3, §4

The target in data set [7] is T5, α1A (rabbit urethra) (Oryctolagus cuniculus, UniProt O02824).
T5 construct: tested for α1A functional activity using rabbit urethra; from tissue; host or cells: rabbit urethra (female New Zealand white rabbits)
T5 sequence (O02824 1-466): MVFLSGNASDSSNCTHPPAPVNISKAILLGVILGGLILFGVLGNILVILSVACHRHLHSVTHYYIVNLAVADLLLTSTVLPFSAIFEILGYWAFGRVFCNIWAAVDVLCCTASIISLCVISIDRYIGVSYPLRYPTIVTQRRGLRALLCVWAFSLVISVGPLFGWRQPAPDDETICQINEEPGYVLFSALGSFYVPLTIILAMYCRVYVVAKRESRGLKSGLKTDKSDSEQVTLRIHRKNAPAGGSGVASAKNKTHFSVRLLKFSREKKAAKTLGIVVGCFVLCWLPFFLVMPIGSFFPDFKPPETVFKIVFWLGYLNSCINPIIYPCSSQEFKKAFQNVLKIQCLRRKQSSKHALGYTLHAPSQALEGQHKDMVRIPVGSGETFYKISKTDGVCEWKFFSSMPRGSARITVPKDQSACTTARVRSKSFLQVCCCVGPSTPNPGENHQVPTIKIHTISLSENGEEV
The data set is described as follows: Agonist tissue response, contraction of rabbit urethra. It counts as biochemical. The conditions noted are these: values without asterisk, read-out: Agonist Tissue Response (pD2) α1A (rab ureth) (converted). As for the experimental part:
Most of the compounds were tested for α1A functional activity using rabbit urethra as follows. Female New Zealand white rabbits (2.0-3.5 Kg) were sedated with CO2 and decapitated. […] Subsequent experimental conditions were as described above for the other tissues. Agonist concentration response curves were cumulative except for the vas deferens assay in which the transient response made such measurements impractical.

[8] abbreviates: hamster receptor expressed in mouse fibroblasts, [3H]-prazosin, read-out: Radioligand Binding Ki α1b (Hamster).
Setting [9] is: rat receptor expressed in mouse fibroblasts, [3H]-prazosin, read-out: Radioligand Binding Ki α1d (Rat).

As for `CCS(=O)(=O)Nc1cccc(C(=C2CCCCC2)c2c[nH]cn2)c1` [Example 56], the figures for the Ki in data set [1] and in data set [3] were 0.0161 µM and 0.00246 µM, respectively. Also, the EC50 in data set [2] was 186 µM.

Take `C=C(c1cccc(NS(C)(=O)=O)c1)c1c[nH]cn1` [Example 92, N-{3-[1-(1H-imidazol-4-yl)vinyl]phenyl}methanesulfonamide]: the ED (5 mm Hg) in data set [4] was found to be 0.397 µmol/kg. Besides, the inhibition constant (Ki) in data set [1] (setting [8]) is 10 µM; in data set [5], 0.689 µM; in data set [3] (setting [9]), 1.98 µM. For the same compound, in data set [6], the “Mean MAP ED20” value was found to be 652.06 nmol/kg. In addition, the EC50 in data set [7] was 3.24 µM.

For the compound `CCN(C(=O)Nc1cccc2c1CCCC2c1c[nH]cn1)C1CCCCC1` (centres unmarked) [Example 113, N-cyclohexyl-N-ethyl-N′-[5-(1H-imidazol-4-yl)-5,6,7,8-tetrahydro-1-naphthalenyl]urea], the inhibitory constant (Ki) in data set [1] (setting [8]) worked out at 10 µM; in data set [5], 0.536 µM; in data set [3] (setting [9]), 2.11 µM. Also, the “Mean MAP ED20” value in data set [6] is reported as 733.7 nmol/kg. The EC50 in data set [7] was 3.98 µM.

With `O=C(Nc1cccc2c1CCCC2c1c[nH]cn1)N1CCCCC1` (centres unmarked) [Example 114, N-[5-(1H-imidazol-4-yl)-5,6,7,8-tetrahydro-1-naphthalenyl]-1-piperidinecarboxamide], in data set [4], the ED (5 mm Hg) turned out to be 1.68 µmol/kg. In data set [4], the “Mean Selectivity Ratio MAP ED20/IUP ED5” value was 0.97. Also, the Ki in data set [1] (setting [8]) worked out at 10 µM; in data set [5], 1.05 µM; in data set [3] (setting [9]), 5.62 µM. The “Mean MAP ED20” value in data set [6] was determined as 1074.07 nmol/kg. The EC50 in data set [7] is 9.12 µM.

`CC1CC(C)CN(C(=O)Nc2cccc3c2CCCC3c2c[nH]cn2)C1` (centres unmarked) [Example 115, N-[5-(1H-imidazol-4-yl)-5,6,7,8-tetrahydro-1-naphthalenyl]-3,5-dimethyl-1-piperidinecarboxamide]: the ED (5 mm Hg) in data set [4] came out at 0.5 µmol/kg. Also, the “Mean Selectivity Ratio MAP ED20/IUP ED5” value in data set [4] came out at 1.05. Further, the results for the inhibitory constant (Ki) in data set [1] (setting [8]), in data set [5] and in data set [3] (setting [9]) were 10 µM, 1.16 µM and 10 µM, respectively. For the same compound, in data set [6], the “Mean MAP ED20” value came out at 500 nmol/kg. The EC50 in data set [7] is 5.5 µM.

On to `O=C(Nc1cccc2c1CCCC2c1c[nH]cn1)N1CCOCC1` (centres unmarked) [Example 117, N-[5-(1H-imidazol-4-yl)-5,6,7,8-tetrahydro-1-naphthalenyl]-4-morpholinecarboxamide], for which the ED (5 mm Hg) in data set [4] stood at 0.873 µmol/kg. Moreover, the “Mean Selectivity Ratio MAP ED20/IUP ED5” value in data set [4] was determined as 0.75. The Ki in data set [1] was found to be 10 µM; in data set [5] it was 1.1 µM; in data set [3], 10 µM. Moreover, the “Mean MAP ED20” value in data set [6] came to 645 nmol/kg. Further, the EC50 in data set [7] is 5.37 µM.
